Data as given in patent US20140079741A1, “INHIBITION AND TREATMENT OF BIOFILMS” (priority 2011, published 2014).
“Also recorded” adds a separate entry of the source.

Columns and labels:
C. albicans WT biofilms = assay: Biofilm survival by CFU determination (plating on YPD); assay type: cell-based, Candida albicans; conditions: WT biofilms grown with 500 μg/ml diclofenac, AmB 2.5-10 μg/ml, 24 h
Procedure: Using the same setup as in Example 2, WT biofilms grown in the presence or absence of diclofenac (500 μg/ml) or Δefg1 biofilms were incubated with various concentrations of Amphotericin B (AmB) (2.5-10 μg/ml) for 24 h, both in the presence or absence of diclofenac. After washing, the remaining living cells within the biofilm were determined by plating on YPD and determination of colony forming units (CFUs).

[1] = test system: C. albicans WT CAF2-1 biofilms; assay: Biofilm cell viability by CellTiter-Blue staining; assay type: cell-based, Candida albicans; conditions: 24 h
Procedure: To this end, cultures of the WT CAF2-1 were grown overnight (2*10^8 cells/ml) in YPD (1% yeast extract, 2% peptone, 2% glucose) and washed 3 times in PBS (pH 7.4). After dilution (OD600=0.5) in SC (1% CSM, complete amino acid supplement mixture, 1% YNB, yeast nitrogen base; 2% glucose), the cultures were resuspended (100 μl/well) in a 96well microtiter plate. After 1 h of adhesion, the adherent WT cells were incubated with or without 2 mM (about 500 μg/ml) diclofenac (in DMSO, resulting in final concentration of 2.4% DMSO) and allowed biofilm growth for 16 h in SC. Next, the resulting biofilms were washed with PBS and treated with various concentrations of miconazole (0-500 μM) for 24 h in the absence or presence of diclofenac. After washing, the remaining living cells using the CellTiter-Blue quantification method were determined.
(§1) Using the same setup as above, WT biofilms grown in the presence or absence of diclofenac (0.5-3 mM or 148-888 μg/mL) were incubated with various concentrations of Caspofungin (0-150 μM) for 24 h, both in the presence or absence of diclofenac. After washing, the remaining living cells within the biofilm was determined by CellTiter-Blue quantification. The MIC50 of caspofungin, diclofenac and the combination of both drugs against pretreated or mature C. albicans biofilms was quantified by XTT reduction assay (Ramage et al.).

[2] = test system: planktonic cultures of C. albicans CAF2-1; assay: MIC50 against planktonic cultures (NCCLS M27-A3); assay type: cell-based, Candida albicans; conditions: Candida albicans, planktonic
Procedure: (§2) Similar results were obtained by determination of the MIC50 values. The susceptibility testing and determination of minimal inhibitory concentrations (MIC) of diclofenac and caspofungin, and combinations thereof that inhibit fungal growth by 50% (MIC50) were performed according the NCCLS M27-A3 protocol (2008).

[3] = test system: biofilms of C. albicans CAF2-1; assay: MIC50 against biofilms (XTT reduction assay); assay type: cell-based, Candida albicans; conditions: for MIC50: Candida albicans
Procedure: as §1, §2

[4] = test system: C. albicans biofilms grown on catheters; assay: In vitro biofilm drug susceptibility on polyurethane catheter pieces (CFU); assay type: cell-based, Candida albicans
Procedure: In an alternative setup, in vitro biofilm drug susceptibility assays were performed using serum-coated 1 cm polyurethane catheter pieces (Arrow International Reading) as described previously. Biofilms were grown in RPMI 1640 (pH 7.0) and Candida cells were allowed to adhere to the substrate for 90 min.
Diclofenac (2 mM) was administered during the period of adhesion of C. albicans cells on the catheters and throughout the period of biofilm formation. Catheter fragments containing diclofenac-pretreated or untreated mature biofilms were washed and subsequently incubated with caspofungin (125 μM) or water in the presence or absence of diclofenac (2 mM) for 24 h, respectively. Biofilms were washed and quantified by determination of colony forming units. Untreated biofilms were considered as controls. Statistical analysis was performed using unpaired t-test; differences were considered significant if p<0.05. Data are the mean and SEM of five independent experiments using at least two catheters per test group.
Similar results were obtained when assessing the antibiofilm effect of caspofungin against mature biofilms, which were formed on diclofenac-soaked catheter fragments versus those formed on unsoaked catheter fragments.

[5] = test system: C. albicans CAF2 biofilms on implanted catheter fragments; assay: Rat subcutaneous catheter infection model (in vivo biofilm susceptibility); set-up: species or system Candida albicans
Procedure: A rat subcutaneous catheter infection model was used for in vivo biofilm susceptibility studies, in which 6 rats were treated with sterile saline (control, 40 catheters), 6 rats with diclofenac (48 catheters), 5 rats with caspofungin (40 catheters) and 6 rats with a combination of diclofenac and caspofungin (45 catheters).
Diclofenac and caspofungin solutions for intravenous injection were prepared in sterile physiological solution. The administration of diclofenac (3 mg/kg) started immediately after the catheter implant and continued daily up to 9 days. The treatment with caspofungin (3 mg/kg) was initiated after 48 h of in vivo biofilm development and maintained by daily injections for 7 days. Sterile saline was administered to the control group. Further analysis and quantification of the number of cells per individual biofilm was performed as previously described. Statistical analysis was performed using unpaired t-test; differences were considered significant if p<0.05. Data are the means and SEM of 2 independent experiments. Six independent catheters retrieved from each test group were used for scanning electron microscopy (SEM) analyses. Prior to the SEM analysis, each catheter fragment was cut longitudinally through the lumen and subsequently prepared for microscopy as previously described.

[6] = test system: C. albicans biofilm cells; conditions: caspofungin doses 0.05 μM-0.5 μM, background statement; cited from earlier work
[7] = test system: C. albicans biofilms of wild type CAF2; assay: Biofilm activity assay, crystal violet quantification (BEC50); assay type: cell-based, Candida albicans
Procedure: (§3) Biofilm activity assay. The activity of miconazole and fluconazole against 16 h-old C. albicans biofilms (10^7 cells/well) was assessed using the crystal violet quantification method. The biofilm-eradicating capacity of a compound was determined as the minimal concentration resulting in 50% eradication of the biofilm (BEC50).
(§4) Miconazole sensitivity was analyzed of biofilms of C. albicans homozygous null mutants affected in genes involved in the cyclic AMP signaling pathway, namely Δcdc35, Δras1, Δpde1, Δpde2 and Δefg1. To this end, the inventors incubated 16 h-old C. albicans biofilms with various concentrations of miconazole for 24 h and determined the remaining biomass using the crystal violet quantification method.
To this end, cultures of the WT CAF2-1 were grown overnight (2×10^8 cells/ml) in YPD (1% yeast extract, 2% peptone, 2% glucose) and washed 3 times in PBS (pH 7.4). After dilution (OD600=0.5) in SC (1% CSM, complete amino acid supplement mixture, 1% YNB, yeast nitrogen base; 2% glucose), the cultures were resuspended (100 μl/well) in a 96well microtiter plate. After 1 h of adhesion, the adherent WT cells were incubated with or without 500 μg/ml diclofenac and allowed biofilm formation for 16 h. Next, the resulting biofilms were washed with PBS and treated with various concentrations of miconazole for 24 h in the absence or presence of diclofenac. After washing, the remaining biomass was determined using the crystal violet quantification method.
The biofilm-eradicating capacity of a compound was determined as the minimal concentration resulting in 50% eradication of the biofilm (BEC50).

[8] = test system: C. albicans reintegrant Δefg1(EFG1) biofilms; assay: as above; assay type: cell-based, Candida albicans; conditions: for sensitivity of biofilms to miconazole: Δefg1(EFG1)
Procedure: as §3, §4

[9] = test system: C. albicans Δefg1 biofilms; assay: as above; assay type: cell-based, Candida albicans
Procedure: as §3, §4

[10] = test system: C. albicans biofilm cells; assay: Intracellular accumulation of miconazole in biofilm cells (quantitative HPLC); assay type: cell-based, Candida albicans
Procedure: Quantitative analysis of intracellular accumulation of miconazole in C. albicans biofilm cells. […] After incubation, treated biofilms were resuspended and pooled per 5 wells. After centrifugation, samples were taken for cell counting using a Thoma counting chamber, whereafter the pellet was resuspended in 300 μl 70% acetonitrile/30% PBS. Miconazole concentration in the cell lysates was determined using HPLC and normalized to the number of cells in the pellet. Statistical analysis was performed using unpaired student t test; differences were considered significant if p<0.05.
The intracellular accumulation of miconazole in Δefg1 and WT biofilms upon miconazole treatment was determined to investigate whether the increased miconazole sensitivity of Δefg1 biofilms is due to an increased uptake or decreased efflux of miconazole. To this end, 16 h-old Δefg1 and WT C. albicans biofilms were treated with different concentrations of miconazole for 4 h and the concentration of miconazole in the biofilm cells via HPLC analysis was determined.
The intracellular accumulation of miconazole in WT biofilms grown in the prescence or absence of 500 μg/ml diclofenac upon miconazole treatment was determined to investigate whether the increased miconazole sensitivity of diclofenac-treated WT biofilms is due to an increased uptake or decreased efflux of miconazole. […]

[11] = rats, caspofungin 3 mg/kg 7 days with 48 h diclofenac-pretreatment and further diclofenac 3 mg/kg

SMILES: C[C@@H]1[C@H](O)[C@@H](C)/C=C/C=C/C=C/C=C/C=C/C=C/C=C/[C@H](O[C@@H]2O[C@H](C)[C@@H](O)[C@H](N)[C@@H]2O)C[C@@H]2O[C@](O)(C[C@@H](O)C[C@@H](O)[C@H](O)CC[C@@H](O)C[C@@H](O)CC(=O)O[C@H]1C)C[C@H](O)[C@H]2C(=O)O [Amphotericin B]
- drop of % survival compared to diclofenac-untreated biofilms (C. albicans WT biofilms): about 5 fold

SMILES: CC[C@H](C)C[C@H](C)CCCCCCCCC(=O)N[C@H]1C[C@@H](O)[C@@H](NCCN)NC(=O)[C@@H]2[C@@H](O)CCN2C(=O)[C@H]([C@H](O)CCN)NC(=O)[C@H]([C@H](O)[C@@H](O)c2ccc(O)cc2)NC(=O)[C@@H]2C[C@@H](O)CN2C(=O)[C@H]([C@@H](C)O)NC1=O [caspofungin]
- drop of % survival compared to diclofenac-untreated biofilms ([1]; WT biofilms grown with 0.5-3 mM diclofenac, various caspofungin concentrations): about 5 fold
- MIC50 ([2]; RPMI 1640, caspofungin alone): < 0.05 µM
- MIC50 ([2]; combination of caspofungin and 2 mM diclofenac): 0.23 µM
- MIC50 ([3]; biofilms, caspofungin alone): 6 µM
- MIC50 ([3]; biofilms, caspofungin in combination with 2 mM diclofenac-pretreatment): < 0.75 µM
- MIC50 ([3]; coincubation of mature biofilms with caspofungin and 2 mM diclofenac): 1.5 µM
- MIC50 against biofilms relative to MIC50 against planktonic cultures ([3]; caspofungin alone): at least 100 times
- FICI ([3]; diclofenac coincubation/caspofungin combination): 0.25
- FICI ([3]; diclofenac pretreatment/caspofungin combination): 0.125
- reduction of the number of biofilm cells compared to control treatment ([4]; 125 μM caspofungin alone, 24 h, untreated/unsoaked catheters): did not result in a statistically significant reduction; also recorded: did not display significant activity
- reduction of the number of in vitro biofilm cells compared to untreated biofilms ([4]; 2 mM diclofenac during biofilm growth, then 125 μM caspofungin 24 h): at least 12 fold
- reduction of the number of biofilm cells compared to control treatment ([4]; biofilms grown on diclofenac-soaked catheters, 125 μM caspofungin): at least 17 fold
- sterile catheter fragments retrieved ([5]; rats treated with both caspofungin and diclofenac): 29%
- number of sterile catheters retrieved ([5]; rats treated with both caspofungin and diclofenac (45 catheters)): thirteen
- sterile catheter fragments retrieved ([5]; rats treated with caspofungin alone): 7.5%
- number of sterile catheters retrieved ([5]; rats treated with caspofungin alone (40 catheters)): three
- reduction in biofilm cell numbers compared to control treatment [5, 11]: more than 15 fold
- reduction in cell numbers compared to caspofungin treatment alone [5, 11]: more than 5 fold
- reduction in the number of surviving biofilm cells compared to control treatment ([5]; rats, caspofungin alone 3 mg/kg daily injections for 7 days): more than 10 fold
- biofilm structure by scanning electron microscopy ([5]; rats, caspofungin without diclofenac-pretreatment): biofilm cells formed in minor clusters
- biofilm structure by scanning electron microscopy ([5]; rats, diclofenac and caspofungin together): only scattered yeast cells and hyphae were observed
- metabolic activity of C. albicans biofilm cells [6]: do not decrease the metabolic activity

SMILES: Clc1ccc(COC(Cn2ccnc2)c2ccc(Cl)cc2Cl)c(Cl)c1 (stereo not shown) [miconazole]
- BEC50 (minimal concentration resulting in 50% eradication of the biofilm) ([7]; WT CAF2, 16 h-old biofilms, 24 h treatment, no diclofenac): > 250 µg/mL
- BEC50 ([7]; WT biofilms grown and treated in presence of 500 μg/ml diclofenac): 46 µg/mL
- sensitivity of biofilms to miconazole ([7]; WT, high miconazole dose 250 μg/ml): resistant
- BEC50 ([8]; reintegrant Δefg1(EFG1), 16 h-old biofilms, 24 h treatment): 100 µg/mL
- sensitivity of biofilms to miconazole ([8]; high miconazole dose 250 μg/ml): as sensitive to miconazole as Δefg1 biofilms
- sensitivity of biofilms to miconazole ([8]; moderate miconazole doses 62-125 μg/ml): intermediate miconazole sensitivity phenotype
- BEC50 ([9]; Δefg1, 16 h-old biofilms, 24 h treatment): 25 µg/mL
- sensitivity of biofilms to miconazole ([9]; Δefg1, low miconazole dose 31 μg/ml): sensitive
- intracellular miconazole levels in diclofenac-treated compared to untreated WT biofilm cells ([10]; 62-250 μg/ml miconazole and 500 μg/ml diclofenac): significantly increased
- intracellular miconazole levels in Δefg1 biofilm cells compared to WT biofilm cells ([10]; 62-250 μg/ml miconazole, 4 h): significantly increased
- sensitivity to miconazole compared to untreated WT biofilms ([1]; biofilms treated with 2 mM diclofenac, miconazole 0-500 μM): increased sensitivity
